In the assay the target is T1, human PAH with the R408W mutation (Homo sapiens, UniProt P00439, R408W).
T1 construct: expressed in transfected cells
T1 sequence (P00439 1-452 R408W): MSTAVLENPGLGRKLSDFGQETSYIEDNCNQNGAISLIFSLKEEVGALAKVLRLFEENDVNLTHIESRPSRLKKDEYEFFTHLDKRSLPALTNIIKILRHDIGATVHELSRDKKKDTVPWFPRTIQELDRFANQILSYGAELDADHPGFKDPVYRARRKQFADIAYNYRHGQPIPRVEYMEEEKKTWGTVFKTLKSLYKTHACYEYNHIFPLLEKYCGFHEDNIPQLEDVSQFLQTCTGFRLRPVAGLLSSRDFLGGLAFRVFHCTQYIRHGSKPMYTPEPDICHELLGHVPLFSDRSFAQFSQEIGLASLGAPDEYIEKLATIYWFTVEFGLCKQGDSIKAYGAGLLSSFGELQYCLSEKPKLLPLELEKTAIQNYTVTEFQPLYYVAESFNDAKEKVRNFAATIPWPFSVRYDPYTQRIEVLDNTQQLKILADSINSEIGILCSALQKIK
As to the kind of experiment: Cell Based Phenylalanine Flux Assay. The settings on record: 13C-Tyrosine by LC-MS, average where tested multiple times, read-out: AC50.

[1] abbreviates: A375 cells expressing human R408W PAH, 24 hrs compound incubation.
Where [2] appears, read: A375 R408W cells, 24 hrs with compound, then 20 μM sepiapterin and 800 μM 13C9,15N-Phenylalanine for 4 hours.

In patent US20250262201A1, “COMPOUNDS AND METHODS USEFUL FOR STABILIZING PHENYLALANINE HYDROXYLASE MUTATIONS” (Agios Pharmaceuticals, Inc., priority 2022, published 2025) one finds AC50 data, which are given here for seven compounds.

Each structure is given as a SMILES string. Like-named read-outs stand apart in the source and are kept apart here. A value given as a limit tells only on which side of the number the result lay.

Broadly, the AC50 is the concentration at which the activity in the assay is half-maximal. With `CC(C)(C#N)c1nc(C(F)F)c(C(=O)N2CCc3[nH]cnc3C2c2ccc3ccccc3n2)o1` (stereo in doubt) [Example 127, (S)-2-(4-(difluoromethyl)-5-(4-(quinolin-2-yl)-4,5,6,7-tetrahydro-1H-imidazo[4,5-c]pyridine-5-carbonyl)oxazol-2-yl)-2-methylpropanenitrile], under setting [1], the AC50 was 1000 to 5000 nM.
Still for that read-out and setting: the same measure for `O=C(c1nnc(-c2cnn(C(F)F)c2)o1)N1CCc2[nH]cnc2[C@H]1c1ncc2ccccc2n1` [Example 185, (S)-(5-(1-(difluoromethyl)-1H-pyrazol-4-yl)-1,3,4-oxadiazol-2-yl)(4-(quinazolin-2-yl)-6,7-dihydro-1H-imidazo[4,5-c]pyridin-5(4H)-yl)methanone]: less than 500 nM; for `CC(O)c1nc(Br)c(C(=O)N2CCc3[nH]cnc3[C@@H]2c2ccc3ccccc3n2)o1` (single isomer, unassigned) [Example 132]: 1000 to 5000 nM.
In the case of `Cc1nnc(C(=O)N2CCc3[nH]cnc3C2c2ncc3ccccc3n2)o1` (stereo not shown), the AC50 under setting [2] lay in the range of 1000 to 5000 nM.
As to `O=C(c1cncs1)N1CCc2[nH]cnc2C1c1cn2ccccc2n1` (stereo not shown), under setting [2], the AC50 was in the range of 1000 to 5000 nM.
On to `CC(C)(C)c1ncc(C(=O)N2CCc3[nH]cnc3[C@H]2c2cc3ccccc3cn2)o1` [Example 435, (R)-(2-(tert-butyl)oxazol-5-yl)(4-(isoquinolin-3-yl)-6,7-dihydro-1H-imidazo[4,5-c]pyridin-5(4H)-yl)methanone], for which, under setting [1], the AC50 was less than 500 nM.
With `O=C(c1ncn2ccccc12)N1CCc2[nH]cnc2C1c1ccc2ccccc2n1` (stereo not shown), under setting [2], the AC50 is more than 5000 nM.
